In patent publication US8415375B2, “2-hydroxyethyl-1H-quinolin-2-one derivatives and their azaisosteric analogues with antibacterial activity” (Actelion Pharmaceuticals Ltd., priority 2009, dated 2013) one finds inhibition and MIC data, which are given here for 15 compounds.

In brackets after ≈: the same amount, converted by molar mass.

Common to all, as to format: cell-based
One data set deals with T1, hERG K+ channel (Homo sapiens, UniProt Q12809).
T1 construct: host or cells: CHO-K1 (CHOhERG)
The data set is described as follows: In vitro blocking of hERG K+ channels (QPatch automated patch-clamp, CHO-K1 cells). The conditions noted are these: pH 7.4, at 10 μM, recombinant hERG in CHO-K1 cells, average block on two cells. The procedure: hERG K^+ channels have been cloned from human heart and recombinant channels are stably expressed in CHO-K1 cells (CHOhERG). These cells have been purchased from bSys GmbH(CH-4052 Basel, Switzerland) and are grown in 150 mL culture flasks at 37° C. in 5% CO2. When the cells are ˜100% confluent, they are detached with 0.25% trypsin-EDTA solution and placed in the cell preparation unit of a QPatch automated patch-clamp robot (Sophion Bioscience A/S, 2750 Ballerup, Denmark).
Currents through the hERG K^+ channels (IKhERG) are elicited using the following buffer solutions and voltage protocol: • extracellular solution (in mM): [NaCl]=150; [KCl]=4; [CaCl2]=1.2; [MgCl2]=1; [HEPES]=10; pH adjusted to 7.4 with NaOH; • intracellular solution (in mM): [KCl]=140; [NaCl]=10; [MgCl2]=1; [HEPES]=10; [EGTA]=5; [Mg-ATP]=5; [Na3-GTP]=0.1; pH adjusted to 7.2 with KOH; • voltage protocol: the resting potential is −80 mV and the frequency of stimulation is 0.1 Hz. hERG K^+ currents are measured as the average current during the last 20 ms of the 500 ms pulse to −40 mV minus the average current during the last 20 ms of the 50 ms pulse to −40 mV.
After the cells have stabilized for a few minutes and the currents are steady, the amplitude of IKhERG is recorded under control conditions. Thereafter, the QPatch robot applies the test compound to the cell at the test concentration and, after 4 minutes of stimulation, the amplitude of IKhERG is recorded under test conditions. The ratio of the two amplitudes is used to define a fractional block and the average block on two cells is used to provide the effect of a given concentration (e.g. 10 μM). If, for a given test compound, a sufficient number of concentrations were tested, an apparent IC50 for inhibition of IKhERG is calculated.
For orientation: The hERG channel carries a current that helps repolarise heart muscle cells.

The subject of a further data set is S. aureus 29213. Description: Bacterial growth minimal inhibitory concentration (microdilution, cation-adjusted Mueller-Hinton Broth). The conditions noted are these: Staphylococcus aureus. How it is done: Minimal inhibitory concentrations (MICs; mg/l) were determined in cation-adjusted Mueller-Hinton Broth by a microdilution method following the description given in “Methods for Dilution Antimicrobial Susceptibility Tests for Bacteria that Grow Aerobically”, Approved standard, 7th ed., Clinical and Laboratory Standards Institute (CLSI) Document M7-A7, Wayne, Pa., USA, 2006. All Example compounds were tested against several Gram positive and Gram negative bacteria. Typical antibacterial test results are given in Table 1 hereafter (MIC in mg/l).
A general note: In broth dilution the organism is exposed to a series of concentrations in liquid medium.

The subject of a further data set is S. aureus A798. Description: Bacterial growth minimal inhibitory concentration (microdilution), S. aureus A798. The following applies: Staphylococcus aureus. How it is done: Minimal inhibitory concentrations (MICs; mg/l) were determined in cation-adjusted Mueller-Hinton Broth by a microdilution method following the description given in “Methods for Dilution Antimicrobial Susceptibility Tests for Bacteria that Grow Aerobically”, Approved standard, 7th ed., Clinical and Laboratory Standards Institute (CLSI) Document M7-A7, Wayne, Pa., USA, 2006.
[drawing 16] using the experimentals methods described above for the MIC regarding S. aureus A798 bacteria and for in vitro blocking hERG K^+ channels gave the results summarised in the Table 2 hereafter.

T1 sequence (Q12809 whole entry): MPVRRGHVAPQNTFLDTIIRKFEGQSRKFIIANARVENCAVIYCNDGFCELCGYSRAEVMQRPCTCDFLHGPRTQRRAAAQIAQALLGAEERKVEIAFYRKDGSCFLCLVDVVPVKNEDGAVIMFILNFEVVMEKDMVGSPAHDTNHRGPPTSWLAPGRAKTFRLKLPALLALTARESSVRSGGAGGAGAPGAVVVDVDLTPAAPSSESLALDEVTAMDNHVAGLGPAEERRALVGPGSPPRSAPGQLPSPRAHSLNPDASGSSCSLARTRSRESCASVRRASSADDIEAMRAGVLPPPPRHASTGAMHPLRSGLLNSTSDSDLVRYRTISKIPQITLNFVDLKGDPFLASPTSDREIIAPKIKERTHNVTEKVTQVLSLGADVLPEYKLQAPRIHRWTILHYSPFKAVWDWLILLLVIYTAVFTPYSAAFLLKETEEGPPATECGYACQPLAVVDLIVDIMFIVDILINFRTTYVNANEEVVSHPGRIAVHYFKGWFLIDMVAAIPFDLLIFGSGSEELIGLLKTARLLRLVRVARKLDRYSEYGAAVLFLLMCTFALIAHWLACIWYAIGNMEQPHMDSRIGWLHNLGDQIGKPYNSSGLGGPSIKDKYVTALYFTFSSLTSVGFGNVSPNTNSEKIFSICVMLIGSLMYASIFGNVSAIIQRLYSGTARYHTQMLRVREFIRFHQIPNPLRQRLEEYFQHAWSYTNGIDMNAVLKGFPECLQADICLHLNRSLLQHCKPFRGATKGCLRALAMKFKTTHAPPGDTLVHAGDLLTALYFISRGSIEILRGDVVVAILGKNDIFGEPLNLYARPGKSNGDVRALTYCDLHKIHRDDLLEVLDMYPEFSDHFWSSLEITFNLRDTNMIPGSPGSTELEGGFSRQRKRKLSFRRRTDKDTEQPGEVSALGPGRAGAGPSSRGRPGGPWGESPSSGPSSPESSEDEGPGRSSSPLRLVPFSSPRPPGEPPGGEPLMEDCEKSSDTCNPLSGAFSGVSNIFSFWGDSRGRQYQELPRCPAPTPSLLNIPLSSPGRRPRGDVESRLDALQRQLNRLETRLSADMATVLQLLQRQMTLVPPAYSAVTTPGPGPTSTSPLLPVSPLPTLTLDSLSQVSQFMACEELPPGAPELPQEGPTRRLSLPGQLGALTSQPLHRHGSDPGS

For the compound `COc1cnc2ccc(=O)n(C[C@H](O)[C@@H]3CC[C@@H](NCc4cc5c(cn4)OCCO5)CO3)c2n1` [Example 13, 5-((2S)-2-{(2S,5R)-5-[(2,3-dihydro-[1,4]dioxino[2,3-c]pyridin-7-ylmethyl)-amino]-tetrahydro-pyran-2-yl}-2-hydroxy-ethyl)-3-methoxy-5H-pyrido[2,3-b]pyrazin-6-one], at hERG K+ channel, the inhibition (usually the change of the read-out against control, counted positive when it falls) at 4 min, 10 µM came to 5%. For the same compound, the MIC (commonly the smallest concentration in the dilution series that meets the test's criterion for growth inhibition) in the data set on S. aureus 29213 was 0.125 µg/mL (≈ 0.266 µM).

For `COc1ccc2ccc(=O)n(C[C@H](O)C3CCC(NCc4cc5c(cn4)OCCO5)CC3)c2n1` (stereo partly drawn) [Example 6, 1-((2R)-2-{4-[(2,3-dihydro-[1,4]dioxino[2,3-c]pyridin-7-ylmethyl)-amino]cyclohexyl}-2-hydroxy-ethyl)-7-methoxy-1H-[1,8]naphthyridin-2-one], the MIC against S. aureus A798 is not above 0.063 µg/mL; against S. aureus 29213, not above 0.031 µg/mL. Besides, the inhibition at 4 min, 10 µM at hERG K+ channel was found to be 35%.

Take `COc1cnc2ccc(=O)n(C[C@H](O)[C@@H]3CC[C@@H](NCc4cc5c(nn4)OCCS5)CO3)c2n1` [Example 15, 5-((S)-2-{(2S,5R)-5-[(6,7-dihydro-8-oxa-5-thia-1,2-diaza-naphthalen-3-ylmethyl)-amino]-tetrahydro-pyran-2-yl}-2-hydroxy-ethyl)-3-methoxy-5H-pyrido[2,3-b]pyrazin-6-one]: the inhibition at 4 min, 10 µM at hERG K+ channel was 0%. Further, in the data set on S. aureus 29213, the MIC was 0.25 µg/mL (≈ 0.514 µM).

For the compound `COc1ccc2ccc(=O)n(C[C@H](O)[C@@H]3CC[C@@H](NCc4cc5c(cn4)OCS5)CO3)c2n1` [Example 9, 1-((2S)-2-hydroxy-2-{(2S,5R)-5-[(3-oxa-1-thia-5-aza-indan-6-ylmethyl)-amino]-tetrahydro-pyran-2-yl}-ethyl)-7-methoxy-1H-[1,8]naphthyridin-2-one], at hERG K+ channel, the inhibition at 4 min, 10 µM was found to be 52%. This compound showed a minimum inhibitory concentration (MIC) in the data set with S. aureus 29213 not above 0.031 µg/mL.

For `COc1ccc2ncc(=O)n(C[C@H](O)[C@@H]3CC[C@@H](NCc4cc5c(cn4)OCCO5)CO3)c2c1` [Example 3, 1-((2S)-2-{(2S,5R)-5-[(2,3-dihydro-[1,4]dioxino[2,3-c]pyridin-7-ylmethyl)-amino]tetrahydro-pyran-2-yl}-2-hydroxy-ethyl)-7-methoxy-1H-quinoxalin-2-one], the MIC with S. aureus A798 was not above 0.063 µg/mL; in the data set on S. aureus 29213, not above 0.031 µg/mL. Moreover, the inhibition at 4 min, 10 µM at hERG K+ channel is 18%.

As to `COc1ccc2ccc(=O)n(C[C@H](O)[C@@H]3CC[C@@H](NCc4cc5c(cn4)OCCS5)CO3)c2n1` [Example 1, 1-((S)-2-{(2S,5R)-5-[(2,3-dihydro-4-oxa-1-thia-6-aza-naphthalen-7-ylmethyl)-amino]-tetrahydro-pyran-2-yl}-2-hydroxy-ethyl)-7-methoxy-1H-[1,8]naphthyridin-2-one], the inhibition at 4 min, 10 µM at hERG K+ channel was 32%. Moreover, in the data set on S. aureus 29213, the minimum inhibitory concentration (MIC) is not above 0.031 µg/mL.

For the compound `COc1ccc2ncc(=O)n(C[C@H](O)[C@@H]3CC[C@@H](NCc4cc5c(nn4)OCCS5)CO3)c2n1` [Example 12, 4-((2S)-2-{(2S,5R)-5-[(6,7-dihydro-8-oxa-5-thia-1,2-diaza-naphthalen-3-ylmethyl)-amino]-tetrahydro-pyran-2-yl}-2-hydroxy-ethyl)-6-methoxy-4H-pyrido[2,3-b]pyrazin-3-one], the inhibition at 4 min, 10 µM at hERG K+ channel came out at 7%. In the data set on S. aureus 29213, this compound returned an MIC of 0.063 µg/mL (≈ 0.129 µM).

In the data set with S. aureus 29213, `COc1cnc2ccc(=O)n(C[C@H](O)[C@@H]3CC[C@@H](NCc4cc5c(cn4)OCCS5)CO3)c2n1` [Example 14, 5-((2S)-2-{(2S,5R)-5-[(2,3-dihydro-4-oxa-1-thia-6-aza-naphthalen-7-ylmethyl)-amino]-tetrahydro-pyran-2-yl}-2-hydroxy-ethyl)-3-methoxy-5H-pyrido[2,3-b]pyrazin-6-one] showed an MIC not above 0.031 µg/mL.

For the compound `COc1ccc2ccc(=O)n(C[C@H](O)[C@@H]3CC[C@@H](NCc4cc5c(nn4)OCCS5)CO3)c2n1` [Example 8, 1-((2S)-2-{(2S,5R)-5-[(6,7-dihydro-8-oxa-5-thia-1,2-diaza-naphthalen-3-ylmethyl)-amino]-tetrahydro-pyran-2-yl}-2-hydroxy-ethyl)-7-methoxy-1H-[1,8]naphthyridin-2-one], the inhibition at 4 min, 10 µM on hERG K+ channel is 6%. In the data set on S. aureus 29213, 0.5 µg/mL (≈ 1.03 µM) was the least that counted as inhibitory (MIC).

With `COc1ccc2ncc(=O)n(C[C@H](O)[C@@H]3CC[C@@H](NCc4cc5c(cn4)OCCS5)CO3)c2n1` [Example 11, 4-((2S)-2-{(2S,5R)-5-[(2,3-dihydro-4-oxa-1-thia-6-aza-naphthalen-7-ylmethyl)-amino]-tetrahydro-pyran-2-yl}-2-hydroxy-ethyl)-6-methoxy-4H-pyrido[2,3-b]pyrazin-3-one], at hERG K+ channel, the inhibition at 4 min, 10 µM is 45%. In the data set with S. aureus 29213, the MIC is not above 0.031 µg/mL.

As for `COc1ccc2ccc(=O)n(C[C@H](O)[C@@H]3CC[C@@H](NCc4cc5c(nn4)OCCO5)CO3)c2n1` [Example 5, 1-((2S)-2-{(2S,5R)-5-[(6,7-dihydro-[1,4]dioxino[2,3-c]pyridazin-3-ylmethyl)-amino]tetrahydro-pyran-2-yl}-2-hydroxy-ethyl)-7-methoxy-1H-[1,8]naphthyridin-2-one], the inhibition at 4 min, 10 µM at hERG K+ channel was found to be 28%. Besides, the minimum inhibitory concentration (MIC) in the data set on S. aureus 29213 turned out to be 0.063 µg/mL (≈ 0.134 µM).

Regarding `COc1ccc2ccc(=O)n(C[C@H](O)[C@@H]3CC[C@@H](NCc4cc5c(cn4)OCCO5)CO3)c2n1` [Example 2, 1-((2S)-2-{(2S,5R)-5-[(2,3-dihydro-[1,4]dioxino[2,3-c]pyridin-7-ylmethyl)-amino]-tetrahydro-pyran-2-yl}-2-hydroxy-ethyl)-7-methoxy-1H-[1,8]naphthyridin-2-one], the MIC with S. aureus A798 was not above 0.063 µg/mL; against S. aureus 29213 it was not above 0.031 µg/mL. Also, on hERG K+ channel, the inhibition at 4 min, 10 µM came to 18%.

On to `COc1ccc2ncc(=O)n(C[C@H](O)C3CCC(NCc4cc5c(cn4)OCCO5)CC3)c2c1` (stereo partly drawn) [Example 7, 1-((2R)-2-{4-[(2,3-dihydro-[1,4]dioxino[2,3-c]pyridin-7-ylmethyl)-amino]-cyclohexyl}-2-hydroxy-ethyl)-7-methoxy-1H-quinoxalin-2-one], for which the values for the minimal inhibitory concentration (MIC) against S. aureus A798 and against S. aureus 29213 were 0.125 µg/mL (≈ 0.268 µM) and not above 0.031 µg/mL, respectively. In addition, on hERG K+ channel, the inhibition at 4 min, 10 µM was 18%.

As for `COc1ccc2ncc(=O)n(C[C@H](O)[C@@H]3CC[C@@H](NCc4cc5c(cn4)OCCO5)CO3)c2n1` [Example 4, 4-((2S)-2-{(2S,5R)-5-[(2,3-dihydro-[1,4]dioxino[2,3-c]pyridin-7-ylmethyl)-amino]tetrahydro-pyran-2-yl}-2-hydroxy-ethyl)-6-methoxy-4H-pyrido[2,3-b]pyrazin-3-one], the figures for the MIC with S. aureus A798 and in the data set on S. aureus 29213 were not above 0.063 µg/mL and not above 0.031 µg/mL, respectively. In addition, the inhibition at 4 min, 10 µM on hERG K+ channel is 7%.

For `COc1ccc2cc(F)c(=O)n(C[C@H](O)[C@@H]3CC[C@@H](NCc4cc5c(cn4)OCS5)CO3)c2n1` [Example 10, 3-fluoro-1-((2S)-2-hydroxy-2-{(2S,5R)-5-[(3-oxa-1-thia-5-aza-indan-6-ylmethyl)-amino]-tetrahydro-pyran-2-yl}-ethyl)-7-methoxy-1H-[1,8]naphthyridin-2-one], on hERG K+ channel, the inhibition at 4 min, 10 µM came out at 48%. The compound further came in with an MIC in the data set with S. aureus 29213 not above 0.031 µg/mL.
